Assay results reported in patent EP4667483A1, “HUMAN TRANSFERRIN RECEPTOR-BINDING PEPTIDE” (JCR Pharmaceuticals Co., Ltd., priority 2023, dated 2024).
Numbered stars: 1 amine (or outer) side, 2 acyl side, 3 side chain; on linkers, the order of the positions; unused ones are H or OH. Bridge positions count the residues as written; N and C are the ends. Square brackets hold non-standard residues; d marks the D form. Side chains are listed from the residue outwards. Peptide text beside a SMILES is read from it. * marks the point of attachment. Trp(1-CH2COOH) = N[C@@H](Cc1cn(CC(=O)O)c2ccccc12)C(=O)O; Nle(6-morpholino) = N[C@@H](CCCCN1CCOCC1)C(=O)O; Trp(7-aza) = N[C@@H](Cc1c[nH]c2ncccc12)C(=O)O; NMePhe(3-Cl) = CN[C@@H](Cc1cccc(Cl)c1)C(=O)O; Piperazinyl(4-CH2COOH) = O=C(O)CN1CCN(*)CC1; 3Pal(6-NH2) = Nc1ccc(C[C@H](N)C(=O)O)cn1; NMeW = CN[C@@H](Cc1c[nH]c2ccccc12)C(=O)O; NMeY = CN[C@@H](Cc1ccc(O)cc1)C(=O)O; 4Pal = N[C@@H](Cc1ccncc1)C(=O)O; PEG4 = NCCOCCOCCOCCOCCC(=O)O; Carboxymethyl = O=C(O)C*; CO = O=C([*:1])[*:2]

Tests used:
[1] = molecular target: T1, human transferrin receptor (hTfR) (Homo sapiens, UniProt P02786); experiment: SPR measurement under pH 6.0 conditions (Biacore T200, NTA chip, immobilized hTfR); format: binding; conditions: read-out: hTfR SPR pH6.0 KD
T1 sequence (P02786 whole entry): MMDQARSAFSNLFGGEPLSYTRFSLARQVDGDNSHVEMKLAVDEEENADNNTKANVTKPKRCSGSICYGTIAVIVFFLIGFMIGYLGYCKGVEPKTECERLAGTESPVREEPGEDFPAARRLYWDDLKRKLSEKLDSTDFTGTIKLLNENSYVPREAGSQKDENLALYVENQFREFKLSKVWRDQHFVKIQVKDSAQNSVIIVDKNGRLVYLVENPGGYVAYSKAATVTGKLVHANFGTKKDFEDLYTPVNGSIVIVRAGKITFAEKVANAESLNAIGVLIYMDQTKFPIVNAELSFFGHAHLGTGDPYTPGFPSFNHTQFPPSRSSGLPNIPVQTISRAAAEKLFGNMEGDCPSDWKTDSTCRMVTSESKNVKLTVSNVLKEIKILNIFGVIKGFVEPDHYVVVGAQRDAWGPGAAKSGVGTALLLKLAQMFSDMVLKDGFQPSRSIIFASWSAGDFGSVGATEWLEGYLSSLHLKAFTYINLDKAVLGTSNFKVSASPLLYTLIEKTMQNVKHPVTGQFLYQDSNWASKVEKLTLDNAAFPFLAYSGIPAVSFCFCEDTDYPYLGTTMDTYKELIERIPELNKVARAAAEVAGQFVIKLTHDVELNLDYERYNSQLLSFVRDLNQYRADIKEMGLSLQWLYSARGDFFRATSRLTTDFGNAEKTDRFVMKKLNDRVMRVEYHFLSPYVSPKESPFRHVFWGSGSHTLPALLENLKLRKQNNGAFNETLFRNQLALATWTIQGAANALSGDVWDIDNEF
Protocol: Molecular interactions between the synthesized peptides and the transferrin receptor (hTfR) were evaluated by surface plasmon resonance (SPR) using the following method. The specific assay procedure is described below.
An NTA sensor chip (Cytiva) was inserted in a Biacore T200 (Cytiva), a priming operation was performed 3 times with a running buffer: HBS-P+ pH 6.0 (Cytiva), and an equilibrium state was created at a flow rate of 30 µL/min. A ligand immobilization operation was carried out at a flow rate of 10 µL/min.
The surface of the NTA sensor chip was washed with 350 mM EDTA solution, nickel ions were loaded into the carbomethyldextran chains of the sensor chip with a 500 µM aqueous nickel chloride solution, and then washing was performed with 3 mM EDTA solution. After mixing 50 µL of each of 60 mM EDC solution (Cytiva) and 650 mM NHS solution (Cytiva), the mixture was reacted for 420 seconds at a flow rate of 10 µL/min. 150 µL of 0.2 µM hTfR solution was prepared by diluting with 10 mM acetic acid solution (pH 5.0), and reacted for 420 seconds at a flow rate of 10 µL/min to immobilize hTfR on the NTA sensor chip. For the human transferrin receptor (hTfR), the recombinant hTfR described in Example 2 of WO2018/124121 was used. After immobilization, capping was performed by reacting with 1.0 M ethanolamine aqueous solution (Cytiva) at a flow rate of 10 µL/min for 420 seconds. Peptide lysate prepared in DMSO to 10 mM was diluted with the running buffer to a final concentration of 10 µM peptide lysate, and then peptide solutions of 250 nM, 125 nM, 62.5 nM, 25 nM, and 12.5 nM were prepared. The kinetics of the peptide against hTfR was obtained by SPR measurement using the above samples.
The kinetic evaluation model was single-cycle kinetics, and curve fitting was performed using Biacore T200 Evaluation Software Version 3.0 (Cytiva). The binding of the peptide to hTfR was evaluated by performing curve fitting on the obtained sensorgram by the least squares method and obtaining the kon value, the koff value, and the KD value.

[2] = molecular target: T1, human transferrin receptor (hTfR); experiment: SPR measurement under pH 7.4 conditions (Biacore T200, CM3 chip, hTfR captured by His Tag antibody); format: binding; conditions: pH 7.4, single-cycle kinetics; read-out: hTfR SPR pH7.4 KD

| Compound | Kd ([1]; pH 6.0, single-cycle kinetics) | Kd [2] | Kd ([1]; SPR, pH 6.0, Table 1-3-2-2) |
| --- | --- | --- | --- |
| CC[C@H](C)[C@@H]1NC(=O)[C@H](Cc2ccc(OC)cc2)NC(=O)[C@H](Cc2ccc(N)nc2)NC(=O)[C@H](CC(N)=O)NC(=O)[C@H](Cc2c[nH]c3ncccc23)NC(=O)[C@H](C(C)C)NC(=O)[C@H](Cc2cccc(Cl)c2)N(C)C(=O)[C@H](C(C)C)NC(=O)[C@H](C)NC(=O)CSC[C@@H](C(=O)NCCOCCOCCOCCOCCC(N)=O)NC(=O)[C@H](Cc2ccc(O)cc2)N(C)C(=O)[C@H](Cc2ccncc2)NC(=O)[C@H](CCCNC(=N)N)NC(=O)[C@H](CCCCN2CCOCC2)NC(=O)[C@H]([C@@H](C)CC)NC1=O [compound 2] ({CH2CO}-AV[NMePhe(3-Cl)]V[Trp(7-aza)]N[3Pal(6-NH2)]Y(Me)II[Nle(6-morpholino)]R[4Pal][NMeY]C[PEG4]-NH2; thioether N-15) | 16.2 nM | 0.888 nM | – |
| CC[C@H](C)[C@@H]1NC(=O)[C@H](Cc2ccc(OC)cc2)NC(=O)[C@H](Cc2ccc(N)nc2)NC(=O)[C@H](CC(N)=O)NC(=O)[C@H](Cc2c[nH]c3ncccc23)NC(=O)[C@H](C(C)C)NC(=O)[C@H](Cc2cccc(Cl)c2)N(C)C(=O)[C@H](C(C)C)NC(=O)[C@H](C)NC(=O)CSC[C@@H](C(=O)NCCOCCOCCOCCOCCC(N)=O)NC(=O)[C@H](Cc2ccc(O)cc2)N(C)C(=O)[C@H](Cc2ccncc2)NC(=O)[C@H](CCCCN2CCOCC2)NC(=O)[C@H](CCCNC(=N)N)NC(=O)[C@H]([C@@H](C)CC)NC1=O [compound 3] ({CH2CO}-AV[NMePhe(3-Cl)]V[Trp(7-aza)]N[3Pal(6-NH2)]Y(Me)IIR[Nle(6-morpholino)][4Pal][NMeY]C[PEG4]-NH2; thioether N-15) | 16.1 nM | 2.63 nM | – |
| CC[C@H](C)[C@@H]1NC(=O)[C@H](Cc2ccc(OC)cc2)NC(=O)[C@H](Cc2ccc(N)nc2)NC(=O)[C@H](CC(N)=O)NC(=O)[C@H](Cc2cn(CC(=O)O)c3ccccc23)NC(=O)[C@H](C(C)C)NC(=O)[C@H](Cc2cccc(Cl)c2)N(C)C(=O)[C@H](C(C)C)NC(=O)[C@H](C)NC(=O)CSC[C@@H](C(=O)NCCOCCOCCOCCOCCC(N)=O)NC(=O)[C@H](Cc2ccc(O)cc2)N(C)C(=O)[C@H](Cc2ccncc2)NC(=O)[C@H](CCCCN2CCOCC2)NC(=O)[C@H](CCCCN2CCOCC2)NC(=O)[C@H]([C@@H](C)CC)NC1=O [compound 6] ({CH2CO}-AV[NMePhe(3-Cl)]V[Trp(1-CH2COOH)]N[3Pal(6-NH2)]Y(Me)II[Nle(6-morpholino)][Nle(6-morpholino)][4Pal][NMeY]C[PEG4]-NH2; thioether N-15) | 21 nM | 6.56 nM | – |
| CC[C@H](C)[C@@H]1NC(=O)[C@H](Cc2ccc(OC)cc2)NC(=O)[C@H](Cc2ccc(N)nc2)NC(=O)[C@H](CC(N)=O)NC(=O)[C@H](Cc2cn(CC(=O)O)c3ccccc23)NC(=O)[C@H](C(C)C)NC(=O)[C@H](Cc2cccc(Cl)c2)N(C)C(=O)[C@H](C(C)C)NC(=O)[C@H](C)NC(=O)CSC[C@@H](C(=O)NCCOCCOCCOCCOCCC(N)=O)NC(=O)[C@H](Cc2ccc(O)cc2)N(C)C(=O)[C@H](Cc2ccncc2)NC(=O)[C@H](CCCCNC(=O)N2CCN(CC(=O)O)CC2)NC(=O)[C@H](CCCCN2CCOCC2)NC(=O)[C@H]([C@@H](C)CC)NC1=O [compound 8] ({CH2CO}-AV[NMePhe(3-Cl)]V[Trp(1-CH2COOH)]N[3Pal(6-NH2)]Y(Me)II[Nle(6-morpholino)]K([CO-Piperazinyl(4-CH2COOH)])[4Pal][NMeY]C[PEG4]-NH2; thioether N-15) | 113 nM | 10.7 nM | – |
| CC[C@H](C)[C@@H]1NC(=O)[C@H](Cc2ccc(OC)cc2)NC(=O)[C@H](CCCNC(=N)N)NC(=O)[C@H](CC(N)=O)NC(=O)[C@H](Cc2c[nH]c3ccccc23)N(C)C(=O)[C@H](C(C)C)NC(=O)[C@H](Cc2cccc(Cl)c2)N(C)C(=O)[C@H](C(C)C)NC(=O)[C@H](C)NC(=O)CSC[C@@H](C(=O)NCCOCCOCCOCCOCCC(N)=O)NC(=O)[C@H](Cc2ccc(O)cc2)N(C)C(=O)[C@H](Cc2ccccc2)NC(=O)[C@H](CCCNC(=N)N)NC(=O)[C@H](CCCCN)NC(=O)[C@H]([C@@H](C)CC)NC1=O [compound 173] ({CH2CO}-AV[NMePhe(3-Cl)]V[NMeW]NRY(Me)IIKRF[NMeY]C[PEG4]-NH2; thioether N-15) | 13.3 nM | – | – |

The next lines start with the values.

| Kd ([1]; pH 6.0, single-cycle kinetics) | Kd [2] | Kd ([1]; SPR, pH 6.0, Table 1-3-2-2) | Compound |
| --- | --- | --- | --- |
| 18.2 nM | 1.56 nM | – | CC[C@H](C)[C@@H]1NC(=O)[C@H](Cc2ccc(OC)cc2)NC(=O)[C@H](Cc2ccc(N)nc2)NC(=O)[C@H](CC(N)=O)NC(=O)[C@H](Cc2c[nH]c3ncccc23)NC(=O)[C@H](C(C)C)NC(=O)[C@H](Cc2cccc(Cl)c2)N(C)C(=O)[C@H](C(C)C)NC(=O)[C@H](C)NC(=O)CSC[C@@H](C(=O)NCCOCCOCCOCCOCCC(N)=O)NC(=O)[C@H](Cc2ccc(O)cc2)N(C)C(=O)[C@H](Cc2ccncc2)NC(=O)[C@H](CCCNC(=N)N)NC(=O)[C@H](CCCNC(=N)N)NC(=O)[C@H]([C@@H](C)CC)NC1=O [compound 1] |
| 29.7 nM | 2.19 nM | – | CC[C@H](C)[C@@H]1NC(=O)[C@H](Cc2ccc(OC)cc2)NC(=O)[C@H](Cc2ccc(N)nc2)NC(=O)[C@H](CC(N)=O)NC(=O)[C@H](Cc2c[nH]c3ncccc23)NC(=O)[C@H](C(C)C)NC(=O)[C@H](Cc2cccc(Cl)c2)N(C)C(=O)[C@H](C(C)C)NC(=O)[C@H](C)NC(=O)CSC[C@@H](C(=O)NCCOCCOCCOCCOCCC(N)=O)NC(=O)[C@H](Cc2ccc(O)cc2)N(C)C(=O)[C@H](Cc2ccncc2)NC(=O)[C@H](CCCCN2CCOCC2)NC(=O)[C@H](CCCCN2CCOCC2)NC(=O)[C@H]([C@@H](C)CC)NC1=O [compound 4] ({CH2CO}-AV[NMePhe(3-Cl)]V[Trp(7-aza)]N[3Pal(6-NH2)]Y(Me)II[Nle(6-morpholino)][Nle(6-morpholino)][4Pal][NMeY]C[PEG4]-NH2; thioether N-15) |
| 117 nM | 6.31 nM | – | CC[C@H](C)[C@@H]1NC(=O)[C@H](Cc2ccc(OC)cc2)NC(=O)[C@H](Cc2ccc(N)nc2)NC(=O)[C@H](CC(N)=O)NC(=O)[C@H](Cc2c[nH]c3ncccc23)NC(=O)[C@H](C(C)C)NC(=O)[C@H](Cc2cccc(Cl)c2)N(C)C(=O)[C@H](C(C)C)NC(=O)[C@H](C)NC(=O)CSC[C@@H](C(=O)NCCOCCOCCOCCOCCC(N)=O)NC(=O)[C@H](Cc2ccc(O)cc2)N(C)C(=O)[C@H](Cc2ccncc2)NC(=O)[C@H](CCCCNC(=O)N2CCN(CC(=O)O)CC2)NC(=O)[C@H](CCCCN2CCOCC2)NC(=O)[C@H]([C@@H](C)CC)NC1=O [compound 5] ({CH2CO}-AV[NMePhe(3-Cl)]V[Trp(7-aza)]N[3Pal(6-NH2)]Y(Me)II[Nle(6-morpholino)]K([CO-Piperazinyl(4-CH2COOH)])[4Pal][NMeY]C[PEG4]-NH2; thioether N-15) |
| 89.8 nM | 16.3 nM | – | CC[C@H](C)[C@@H]1NC(=O)[C@H](Cc2ccc(OCC(=O)O)cc2)NC(=O)[C@H](Cc2ccc(N)nc2)NC(=O)[C@H](CC(N)=O)NC(=O)[C@H](Cc2c[nH]c3ncccc23)NC(=O)[C@H](C(C)C)NC(=O)[C@H](Cc2cccc(Cl)c2)N(C)C(=O)[C@H](C(C)C)NC(=O)[C@H](C)NC(=O)CSC[C@@H](C(=O)NCCOCCOCCOCCOCCC(N)=O)NC(=O)[C@H](Cc2ccc(O)cc2)N(C)C(=O)[C@H](Cc2ccncc2)NC(=O)[C@H](CCCCN2CCOCC2)NC(=O)[C@H](CCCCN2CCOCC2)NC(=O)[C@H]([C@@H](C)CC)NC1=O [compound 7] ({CH2CO}-AV[NMePhe(3-Cl)]V[Trp(7-aza)]N[3Pal(6-NH2)]Y(Carboxymethyl)II[Nle(6-morpholino)][Nle(6-morpholino)][4Pal][NMeY]C[PEG4]-NH2; thioether N-15) |
| – | – | 145 nM | CC[C@H](C)[C@@H]1NC(=O)[C@H](Cc2ccc(O)cc2)NC(=O)[C@H](Cc2ccc(N)nc2)NC(=O)[C@H](CC(N)=O)NC(=O)[C@H](Cc2c[nH]c3ccccc23)N(C)C(=O)[C@H](C(C)C)NC(=O)[C@H](Cc2ccccc2)N(C)C(=O)[C@H](C(C)C)NC(=O)[C@H](C)NC(=O)CSC[C@@H](C(=O)NCC(=O)N[C@H](CCC(=O)O)C(=O)N[C@H](CCC(=O)O)C(=O)N[C@H](CCC(=O)O)C(=O)N[C@H](CO)C(=O)N[C@H](CO)C(=O)N[C@@H](CCCCN=[N+]=[N-])C(N)=O)NC(=O)[C@H](Cc2ccc(C(=O)O)cc2)N(C)C(=O)[C@H](Cc2ccc(O)cc2)NC(=O)[C@H](CCCNC(=N)N)NC(=O)[C@H](CCCCN)NC(=O)[C@H]([C@@H](C)CC)NC1=O [compound 186] |
